According to patent publication US6407093B1, “1,4-Diazacycloheptane derivatives for the treatment of neurological disorders” (Astrazeneca UK Limited, priority 1998, dated 2002):
Structures can show the parent of a compound that is named as a salt.

Assays:
[1] = molecular target: T1, [3H]-emopamil binding site (Cavia porcellus, UniProt Q60490); assay: (−)-3H-Emopamil binding to guinea pig liver membranes; conditions: 0.96 nM (−)-3H-emopamil, 60 minutes at 37° C.
T1 construct: Guinea pig liver membranes: 40 mg/mL original wet weight; from tissue; host or cells: guinea pig liver membranes
T1 sequence (Q60490 1-229): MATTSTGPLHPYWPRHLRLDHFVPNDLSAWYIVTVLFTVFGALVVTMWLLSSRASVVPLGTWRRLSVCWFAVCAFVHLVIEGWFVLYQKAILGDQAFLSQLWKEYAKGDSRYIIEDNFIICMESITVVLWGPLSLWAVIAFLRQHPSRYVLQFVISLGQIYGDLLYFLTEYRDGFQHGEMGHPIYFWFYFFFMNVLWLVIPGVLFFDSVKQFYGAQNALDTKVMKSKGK
Description: -^3H-Emopamil Binding to Guinea Pig Liver Membranes
The method of (−)-^3H-emopamil binding was a modification of Zech, C., Staudinger R., Mühlbacher, J. and Glossmann, H. Novel sites for phenylalkylamines: characterization of a sodium-sensitive drug receptor with (−)-^3H-emopamil. Eur. J. Pharm. 208: 119-130, 1991.
The reaction mixture contained:
Assay buffer: 10 mM Tris-HCl, 0.1 mM phenylmethylsulfonyl fluoride (PMSF), 0.2% bovine serum albumin (BSA), pH 7.4 at 4° C.
Radioligand: 0.96 nM (−)-^3H-emopamil (Amersham).
Guinea pig liver membranes: 40 mg/mL original wet weight.
This mixture was incubated for 60 minutes at 37° C. The incubation was terminated by filtering with a Brandel Cell Harvester over Whatman GF/C filters that had been soaked for at least 120 minutes in 0.3% polyethylenimine (PEI) and washed three times with 5 mL of wash buffer containing 10 mM Tris-HCl, 10 mM MgCl2, 0.2% BSA, pH 7.4 at 25° C. Specific binding was defined with 10 μM emopamil.
Guinea-pig Liver Membrane Preparation
Male guinea pigs were sacrificed by CO2 asphyxiation with dry ice. The livers were quickly excised and weighed and rinsed in membrane preparation buffer containing 10 mM Hepes, 1 mM Tris base-EDTA, 250 mM sucrose, pH 7.4. The livers were then minced, homogenized in 10 times volume with a motor driven Teflon-glass homogenizer with three strokes on ice. […]

[2] = molecular target: L-type voltage sensitive calcium channels (3H-D888 binding site); assay: 3H-D-888 binding to rat brain cortical membranes; conditions: 1 nM 3H-D888, rat cortical membranes, 60 minutes at 25° C.; in vitro selectivity test
Description: -^3H-D-888 Binding to Rat Brain Cortical Membranes
The method of ^3H-D-888 binding was a modification of Reynolds, I. J., Snowman, A. M. and Synder, S. H. (−)-[^3H] Desmethoxyverapamil labels multiple calcium channel modular receptors in brain and skeletal muscle membranes: differentiation by temperature and dihydropyridines. J. Pharmacol. Exp. Ther. 237: no.3, 731-738, 1986.
The assay tubes contained the following: assay buffer: 50 mM Hepes, 0.2% BSA, pH 7.4 radioligand: 1ηM ^3H-D888 (Amersham) rat cortical membranes: 6 mg/ml original wet weight
This mixture was incubated for 60 minutes at 25° C. The assay was terminated by filtering with a Brandel Cell Harvester over Whatman GF/C filters that had been soaked for at least 120 minutes in 0.3% polyethylenamine (PEI) and washed three times with 5 mL of wash buffer containing 20 mM Hepes, 20 mM MgCl2, pH 7.4. Specific binding was measured with 10 μM methoxyverapamil (D-600). This assay was used to determine in vitro selectivity of compounds vs. L-type voltage sensitive calcium channels, i.e high affinity for the ^3H-D888 binding site would show a lack of selectivity.
Rat Brain Cortical Membrane Preparation
Male Sprague-Dawley Rats were sacrificed by decapitation and the brains were quickly excised. The cerebellum and brain stem were removed and discarded; and the rest of the brain was rinsed in 320 mM sucrose. […]

| melting point [°C] | IC50 [1] [µM] | IC50 [2] [µM] | SMILES |
| --- | --- | --- | --- |
| 208 to 209 | – | – | CN1CCCN([C@H]2CCSc3ccccc32)CC1 (as salt: hydrochloride) [Example 5, S(+) 1-Methyl-4-(3,4-dihydro-2H-benzothiopyran-4yl)homopiperazine] |
| 117 to 118 | – | – | CN1CCCN(C2CCSc3ccccc32)CC1 (centres unmarked) (as salt: maleate) [Example 1, 1 -Methyl-4-(3,4-dihydro-2H-benzothiopyran-4-yl)homopiperazine] |
| 148.2 to 148.6 | – | – | CC(C)CN1CCCN(C2CCSc3ccccc32)CC1 (centres unmarked) (as salt: maleate) [Example 7, 1-Isobutyl-4-(3,4-dihydro-2H-benzothiopyran-4-yl)homopiperazine] |
| – | 0.009 | ~15 | CN1CCCN([C@H]2CCSc3ccccc32)CC1 [Example 5, S(+) 1-Methyl-4-(3,4-dihydro-2H-benzothiopyran-4yl)homopiperazine] |
